Reference: patent publication US20230131339A1, “EPI-X4 BASED PEPTIDES AND DERIVATIVES THEREOF” (Universitaet Ulm, priority 2020, published 2023)
Where a SMILES comes first, the peptide text is derived from it. Where no end group is shown, it is not given here. Side-chain parts run from the residue outwards. [ ]: non-standard residue; d: D form. The star is where a group is joined. Palmitoyl = CCCCCCCCCCCCCCCC(=O)*; Glu = glutamate linker

Experiments:
[1] = test system: CXCL12 induced Ca2+-signalling; test: Ca++ signaling in BCR-ABL-transformed murine bone marrow cells; type: cell-based; settings: 1 μM
Procedure: Fifth, it was shown that the peptide derivatives inhibit calcium-signaling. CXCL12 stimulation of CXCR4 expressing B-cells leads to a strong calcium-release. In the presence of CXCR4 antagonists this response is reduced.
For calcium measurement, 1×10^6 BCR-ABL-transformed murine bone marrow cells were incubated with 5 μg/mL of Indo-1 (Molecular Probes) and 0.5 μg/mL of pluronic F-127 (Molecular Probes) in Iscove's medium supplemented with 1% FCS (Pan Biotech) at 37° C. for 45 min. Cells were then washed by centrifugation and the cell pellets were resuspended in Iscove's medium with 1% FCS and treated with the EPI-X4 derivatives (1 μM or 0.5 μM) for 10 minutes at room temperature. Cells were pre-warmed for 5 minutes at 37° C. Calcium flux was assessed by FACS measurement at BD LSR Fortessa. After 30 seconds of baseline recording, CXCR4-dependent calcium signaling was determined by stimulating with 100 ng/ml of mouse SDF-1a (PeproTech).

[2] = mice, i.v. tail vein
Procedure: Peptides were injected into the tail vein of mice. 4 hours post injection, mice were sacrificed and blood taken by heart punctation. Plasma was obtained by centrifugation and tested for remaining activity in antibody competition assay. As control, peptide was spiked into native plasma (ex vivo). IC50 values were determined by non-linear regression assuming 1.8 ml in vivo blood volume. Remaining activity was determined by IC50 (ex vivo)/IC50 (in vivo)×100. The tested peptides included JM #143 (SEQ ID NO.: 54), JM #144 (SEQ ID NO.: 55), JM #192 (SEQ ID NO.: 89), JM #180 (SEQ ID NO.: 77), JM #194 (SEQ ID NO.: 91), JM #235 (SEQ ID NO.: 130), JM #198 (SEQ ID NO.: 95), JM #255 (SEQ ID NO.: 150), JM #257 (SEQ ID NO.: 152) and JM #204 (SEQ ID NO.: 99). […] Shown are data from 2 individual mice measured in duplicates.
In vivo stability assay. 100 μl of a 700 μg/ml stock solution of the peptide in 0.9% NaCl was intravenously injected in the tail vein of C57BL/6NCrl (BL6) mice. 4 hours post injection, mice were killed by cervical dislocation. Mouse plasma was obtained by heart punctation. Blood was 19:1 diluted with 0.16 M NaEDTA and centrifuged at 2000×g for 20 min at 4° C. to obtain plasma. Plasma was stored at −80° C. till remaining peptide activity in the plasma was determined by 12G5 antibody competition assay.

[3] = test system: CXCR4-tropic X4-HIV-1 (NL4-3); type: cell-based; settings: for IC50: CXCR4-tropic X4- (NL4-3)
Procedure: The activity of the peptides was estimated by different assays.
The X4-HIV inhibition assay is designed to measure the activity of the inventive peptides by their efficiency of blocking the infection of tissue culture cells by CXCR4-tropic HIV-1 variants.
HIV-1 inhibition assay. […] For infection of TZM-bl cells in presence of inhibitors, cells were seeded at a density of 1×10^5 cells/ml in 70 μl DMEM containing 2.5% FCS. Compounds were diluted in PBS and 10 μl were added. After 15 minutes of incubation cells were inoculated with 20 μl of diluted virus. Infection rates were determined three days later using Gal-Screen system (Applied Biosystems).

[4] = test system: CXCL12 induced migration of T-cells; test: Migration assay (transwell, Jurkat cells); type: cell-based
Procedure: For each peptide, three independent experiments were performed. The error bars refer to the standard deviation.
Migration assay. Migration assays were performed using 96-well transwell assay plates (Corning Incorporated, Kennebunk, Me., USA) with 5 μm polycarbonate filters. […] Next, 75 μL (0.5×10^5 cells) of Jurkat cells (in assay buffer), together with/without the compounds, were added into the upper chambers. After 4 h at 37° C. (5% CO2), 100 μL of the lower chambers were transferred to a fresh 96 V-well plate and analyzed with Cell-Titer-Glo® assay (Promega, Madison, Wis., USA). The percentage of migrated cells was calculated as described by Balabanian et al. (2005). In order to obtain the relative migration in %, the percentage of migrated cells were normalized to the CXCL12-only control.

[5] = Functional stability assay in human plasma; settings: human, plasma
Procedure: Fourth, the stability of peptides in human plasma and whole human blood was tested (FIG. 4). The functional stability of EPI-X4 (SEQ ID NO.: 1) derivatives was screened using a CXCR4 antibody-based screening approach. Peptides were diluted in full human plasma or blood (>99%) and the functional activity was then measured after either 2 hours or 8 hours and compared to a sample that was not incubated in plasma or blood.
In this test, the peptides were incubated in human plasma for a certain time period.
Stability assay. Whole blood was collected from healthy donors in EDTA tubes and directly used or subsequently centrifuged for 15 min at 2,500×g to obtain plasma. Plasma from 6 donors was pooled and stored in aliquots at −80° C. Compounds were 200-fold diluted in human plasma or whole human blood to reach final concentrations of 20 μM. The t=0 sample was immediately taken and stored at −80° C. Plasma/compound or blood/compound mixture was then transferred to 37° C. and shook at 350 rpm. At given time points samples were taken and stored at −80° C.°. For measuring the functional activity of the plasma/peptide samples, the mixtures were thawed and diluted in ice cold PBS. 12G5-APC antibody competition was then performed as described before. For blood/peptide functional stability, samples were thawed and centrifuged at 14,000 rpm to remove cells and debris. The supernatant was then diluted in PBS and 12G5-antibody competition assay was performed. After the 2 hours incubation, the cells were washed and 50 μl of 1-step-Fix/Lyse solution (Thermo Fisher #00-5333-54) was added for 15 minutes at room temperature. Afterwards cells were washed again and analyzed for bound antibody.

[6] = test system: CXCL12-induced AKT signaling; test: ERK/AKT signaling assay in SupT1 cells: AKT phosphorylation; type: cell-based
Procedure: (§1) Third, the activity of the claimed EPI-X4 derivatives was tested by the effect on CXCL12/CXCR4-mediated ERK (Extracellular-signal Regulated Kinases) and AKT (a serine/threonine-protein kinase) signaling (FIG. 3). In that assay CXCR4 expressing cells are stimulated with the CXCR4 chemokine-ligand CXCL12, which subsequently leads to phosphorylation of ERK and AKT. Preincubation of cells with CXCR4-antagonists blocks those pathways. […] Two or three independent experiments were carried out in triplicates for each peptide in each assay. The error bars refer to the standard deviation.
(§2) ERK/AKT signaling assay. CXCL12 induced ERK and AKT phosphorylation was determined in SupT1 cells. For this, 100,000 cells were seeded per well in a 96-V well plate in 100 μl medium supplemented with 1% FCS. Cells were incubated for 2 hours at 37° C. before 5 μl of compounds were added. After 15 min incubation at 37° C. cells were stimulated by adding 5 μl CXCL12 diluted in PBS to reach a final concentration of 100 ng/ml. Cells were further incubated for 2 min before the reaction was stopped by adding 20 μl of 10% PFA. Cells were fixed for 15 min at 4° C. before PFA was removed and cells permeabilized by adding 100 μl ice cold methanol. After 15 min at 4° C. the methanol was removed, cells were washed and 30 μl primary antibody was added (phospho-p44/42 MAPK (Erk1) (Tyr204)/(Erk2) (Tyr187) (D1H6G) mouse mAb #5726; phosphor-Akt (Ser473) (193H12) rabbit mAb #4058 Cell Signaling) for 1 hour at 4° C. After the antibody was removed and cells were washed secondary antibody was added for 30 min. Cells were washed afterwards and subsequently analyzed by flow cytometry.

[7] = test system: CXCL12-induced ERK signaling; test: ERK/AKT signaling assay in SupT1 cells: ERK phosphorylation; type: cell-based
Procedure: as §1, §2

[8] = target: T1, CXC chemokine receptor type 4 (CXCR4) (human, UniProt P61073 1-352); test: 12G5 antibody competition
T1 chain: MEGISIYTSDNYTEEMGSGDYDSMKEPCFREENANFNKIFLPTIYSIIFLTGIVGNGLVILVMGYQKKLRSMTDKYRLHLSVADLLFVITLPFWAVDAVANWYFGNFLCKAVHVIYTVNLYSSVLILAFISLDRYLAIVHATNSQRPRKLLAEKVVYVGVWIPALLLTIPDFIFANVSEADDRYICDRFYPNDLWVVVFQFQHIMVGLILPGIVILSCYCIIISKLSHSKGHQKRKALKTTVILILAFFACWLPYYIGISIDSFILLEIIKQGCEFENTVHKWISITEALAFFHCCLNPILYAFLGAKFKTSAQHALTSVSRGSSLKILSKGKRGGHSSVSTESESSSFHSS

[9] = target: CXC chemokine receptor type 4 (CXCR4) (human, UniProt P61073 1-352); test: cell-based or functional assay
[10] = target: T1, CXC chemokine receptor type 4 (CXCR4); test: competition
[11] = target: T1, CXC chemokine receptor type 4 (CXCR4); test: competition

CCCCCCCCCCCCCCCC(=O)N[C@@H](CCC(=O)O)C(=O)NCCCC[C@H](NC(=O)[C@H](CCCNC(=N)N)NC(=O)[C@H](CO)NC(=O)[C@H](Cc1c[nH]c2ccccc12)NC(=O)[C@H](CCCNC(=N)N)NC(=O)[C@H](CCSC)NC(=O)[C@H](N)CC(C)C)C(N)=O [JM #194, d-LMRWSRK(Glu-Pal)-NH2] (H-[dL]MRWSRK([Glu-Palmitoyl])-NH2; N-terminus assumed)
reduction of CXCL12 induced calcium-signaling [1]: almost completely blocked calcium-signaling
remaining activity in plasma in vivo 8 hours post injection ([2]; 8 hours post injection): about 9%
anti-HIV-1 activity (in words) [3]: strongly increased anti-HIV-1 activity
IC50 [3]: 2 nM
inhibition of CXCL12 induced migration of T-cells (in words) [4]: high activity

CC[C@H](C)[C@H](N)C(=O)N[C@@H](CC(C)C)C(=O)N[C@@H](CCCNC(=N)N)C(=O)N[C@@H](Cc1c[nH]c2ccccc12)C(=O)N[C@@H](CO)C(=O)N[C@@H](CCCNC(=N)N)C(=O)N[C@@H](CCCCN)C(N)=O [JM #118, ILRWSRK-NH2] (H-ILRWSRK-NH2)
functional stability in human plasma (in words) [5]: rapidly inactivated in plasma
inhibition of CXCL12 induced migration of T-cells (in words) [4]: even more effective than the full-length peptide

CCCCCCCCCCCCCCCC(=O)NCCCC[C@H](NC(=O)[C@H](CCCNC(=N)N)NC(=O)[C@H](CO)NC(=O)[C@H](Cc1c[nH]c2ccccc12)NC(=O)[C@H](CCCNC(=N)N)NC(=O)[C@H](CC(C)C)NC(=O)[C@@H](N)[C@@H](C)CC)C(=O)N[C@@H](CC(C)C)C(=O)N1CCC[C@H]1C(=O)N[C@@H](CS)C(=O)N[C@H](C(=O)N[C@@H](CO)C(=O)O)C(C)C [JM #144, ILRWSRK(Pal)LPCVS]
reduction of CXCL12 induced calcium-signaling [1]: almost completely blocked calcium-signaling
remaining activity in plasma in vivo 4 hours post injection ([2]; 4 hours post injection): 27%

CC[C@H](C)[C@H](N)C(=O)N[C@@H](CC(C)C)C(=O)N[C@@H](CCCNC(=N)N)C(=O)N[C@@H](Cc1c[nH]c2ccccc12)C(=O)N[C@@H](CO)C(=O)N[C@@H](CCCNC(=N)N)C(=O)N[C@@H](CCCCN)C(=O)N[C@@H](CC(C)C)C(=O)N1CCC[C@H]1C(N)=O [JM #114] (H-ILRWSRKLP-NH2)
functional stability in human plasma (in words) [5]: rapidly inactivated in plasma
inhibition of CXCL12 induced migration of T-cells (in words) [4]: even more effective than the full-length peptide

CCCCCCCCCCCCCCCC(=O)NCCCC[C@H](NC(=O)[C@H](CCCNC(=N)N)NC(=O)[C@H](CO)NC(=O)[C@H](Cc1c[nH]c2ccccc12)NC(=O)[C@H](CCCNC(=N)N)NC(=O)[C@H](CC(C)C)NC(=O)[C@@H](N)[C@@H](C)CC)C(N)=O [JM #170, ILRWSRK(Pal)-NH2] (H-ILRWSRK(Palmitoyl)-NH2)
reduction of CXCL12 induced calcium-signaling [1]: almost completely blocked calcium-signaling

CCCCCCCCCCCCCCCC(=O)N[C@@H](CCC(=O)NCCCC[C@H](NC(=O)[C@H](CCCNC(=N)N)NC(=O)[C@H](CO)NC(=O)[C@H](Cc1c[nH]c2ccccc12)NC(=O)[C@H](CCCNC(=N)N)NC(=O)[C@H](CC(C)C)NC(=O)[C@@H](N)[C@@H](C)CC)C(=O)N[C@@H](CC(C)C)C(=O)N1CCC[C@H]1C(=O)N[C@@H](CS)C(=O)N[C@H](C(=O)N[C@@H](CO)C(=O)O)C(C)C)C(=O)O [JM #143, ILRWSRK(Glu-Pal)LPCVS]
reduction of CXCL12-induced AKT signaling ([6]; 0.1 μM): 20-25%
reduction of CXCL12-induced AKT signaling ([6]; 1 μM): ~70%
reduction of CXCL12 induced calcium-signaling [1]: almost completely blocked calcium-signaling
reduction of CXCL12-induced ERK signaling ([7]; 0.1 μM): 20-25%
reduction of CXCL12-induced ERK signaling ([7]; 1 μM): ~70%
IC50 [3]: 5 nM
fold increase of anti-HIV-1 potency compared to WSC02 ([3]; compared to WSC02): more than 60 fold
inhibition of CXCL12 induced migration of T-cells (in words) [4]: strongly increased antagonistic effect in CXCL12 induced cell migration

[dM]LRWSRKK([Glu-Palmitoyl])-NH2 [JM#197]
IC50 [8]: 5 nM

[dL]MRWSRKK([Glu-Palmitoyl])-NH2 [JM#195]
IC50 [8]: 3 nM

[dL]MRWSRKMPCVS [JM#36]
IC50 [8]: 305 nM

[dI]LRWSRKLP-NH2 [JM#174]
IC50, HIV inhibition assay [9]: > 150 nM
IC50 [8]: 480 nM

ILRWSRK(Palmitoyl)LPCVS [JM#144]
IC50, X4-HIV-1 inhibition assay [9]: < 5 nM
IC50 [10]: 125 nM
IC50 [11]: 87 nM

ILRWSRK-NH2 [JM#118]
IC50, HIV inhibition assay [9]: > 150 nM
IC50 [10]: 181 nM
IC50 [11]: 224 nM

ILRWSRK([Glu-Palmitoyl])LPCVS [JM#143]
IC50 [10]: 204 nM
IC50 [11]: 176 nM
